# Results reported in patent publication US4686103A, “Method of managing cattle breeding herds” (Iowa State University Research Foundation, Inc., priority 1985, dated 1987).
# Like-named read-outs stand apart in the source and are kept apart here.
# Legend:
# [1] = system: first-calf crossbred beef heifers; assay: Induction of parturition with relaxin in combination with dexamethasone or cloprostenol; assay type: in vivo, cattle; conditions: for Interval between treatment and calving: mean ± SE
# Excerpt: Crossbred beef heifers were bred by artificial insemination and assigned randomly to treatment groups on day 268 of pregnancy. Blood samples were collected daily for radioimmunoassay of relaxin, progesterone, estrone and 17β-estradiol. Daily measures were obtained of pelvic dimensions and cervical dilation during the prepartum and postpartum periods. On day 272, heifers were given relaxin alone, or in combination with a prostaglandin (e.g., cloprostenol) or a glucocorticoid (e.g., dexamethasone).
# On day 272, 10 days before expected parturition, dexamethasone (20 mg) was administered intramuscularly (im) to 30 first-calf crossbred beef heifers. Relaxin (3,000 Units) was administered either at the same time or 24 h later either im or infused into the cervical os. The relaxin was dissolved in phosphate buffer saline (PBS) for im injection and in PBS plus a sterile gel for infusion in the cervical os. Controls received the dexamethasone im plus either 1 ml PBS im or 1 ml PBS-gel vehicle infused into the cervical os. There were 5 heifers assigned randomly to each treatment group.
# On day 272, cloprostenol (500 μg) was administered im to 30 first-calf crossbred beef heifers. Relaxin (3,000 Units) wad administered either at the same time or 24 h later either im or infused into the cervical os. The relaxin was dissolved in PBS for injection and in PBS plus sterile gel for infusion into the cervical os. Controls received the cloprostenol im plus either 1 ml PBS im or 1 ml PBS-gel vehicle infused into the cervical os. There were 5 heifers assigned randomly to each treatment group.
# [2] = system: first- and second-calf beef heifers; assay: Induction of parturition with cloprostenol and relaxin or PBS im; assay type: in vivo, cattle; conditions: for Animals with placenta retained ≥24 h / Ease of calving: day 272; for Interval between treatment and calving: day 272, mean ± SE
# Protocol: The effect of cloprostenol and relaxin or PBS given im on induction or parturition was determined in 16 first-calf and 25 second-calf beef heifers. The 41 heifers were given cloprostenol im plus relaxin or PBS im on day 272 of pregnancy.
# [3] = system: estrogen-primed immature Swiss-Webster mice; conditions: unit defined by interpubic ligament formation vs WL1000 standard; cited from earlier work
# [4] = system: primiparous beef heifers; assay: Relaxin-induced parturition in beef heifers, intracervical infusion on day 278; assay type: in vivo, cattle; conditions: for Day of calving: day of gestation, mean ± SE
# Excerpt: Forty-seven crossbred beef heifers approaching their first calving were used in this study. All heifers were bred by artificial insemination at estrus (day 0); pregnancy lasts approximately 283 days. Heifers calved at an average age of 25^± 1 months (± standard error, SE). Heifers were maintained under pasture conditions during the spring, summer and fall throughout gestation. Mixed silage (6.8 kg/animal/day) supplemented the hay fed during the winter. During the month before calving, corn (2/3 kg/animal/day) and mixed silage (9.0 kg/animal/day) were fed in addition to the ad libitum supply of hay.
# (§1) Beginning on day 270 of gestation, the animals were assigned randomly to one of three treatment groups; gel vehicle-treated controls, Number (N)=16; single relaxin-treated heifers, N=14; and double relaxin-treated heifers, N=17. A daily blood sample (10 ml) was obtained from a jugular vein via a hypodermic needle (16 gauge, 3.8-cm length). The blood was divided equally into two culture tubes containing 0.1 ml of heparinized saline (10 U/ml), maintained on ice, and centrifuged (2,000×g; 4° C.); plasma was decanted into two culture tubes, frozen, and stored at -20° C. for radioimmunoassay of progesterone, estrone (E1), and 17β-estradiol (17β-E2. Pelvic and cervical measurements were obtained immediately after the blood collection except on the day of treatment and postcalving, when these measurements were obtained at 12-hour intervals for 60 hours. Relaxin (1 mg, 3,000 U/mg) was infused 4 cm into the cervical os by a sterile insemination pipette on day 278.
# Relaxin was extracted from ovaries of pregnant pigs and purified according to procedures described previously. See Schwabe et al., Rec. Prog. Horm. Res. (1978) 34:123. Purified porcine relaxin (3,000 U/mg) was suspended in 1 ml of vehicle prepared by mixing 0.01 molar phosphate buffer saline (M PBS), pH 7.0, and sterile gel (1 ml volume/volume "KY-4", a surgical lubricating jelly, Johnson and Johnson, Inc., New Brunswick, N.J.). Relaxin or gel vehicle was infused by means of a sterile insemination pipette after the cervical probe was withdrawn. A gloved hand was maintained in the reproductive tract of the heifer to guide the pipette through the cervical sphincter. Relaxin or the gel vehicle then was introduced and deposited 4 cm into the cervix.
# [5] = system: cows; conditions: cited from earlier work
# [6] = system: primiparous beef heifers; assay: Relaxin effect on pelvic area and cervical dilatation in beef heifers; assay type: in vivo, cattle; conditions: for cervical dilatation increase: within 24 h after administration
# Protocol: as §1
# Relaxin was extracted from ovaries of pregnant pigs and purified according to procedures described previously. See Schwabe et al., Rec. Prog. Horm. Res. (1978) 34:123. […]
# Dilatation of the cervix was measured intravaginally by using a specially designed stainless-steel probe. […] The tips of the rods were expanded by rotating the conical swivel to a uniform resistance against the cervical wall, then withdrawn, and the separation of the rods was measured.
# The area of the pelvic canal was calculated from determination of height and width by using a pelvimeter (Lane Manufacturing, Inc., Denver, Colo.) providing internal landmarks. Pelvic height was determined by measuring the linear distance from the midpoint of the dorsal surface of the symphysis pubis to the ventral surface of the prominent junction of the third and fourth sacral segments. Pelvic widths were determined by measuring the greatest linear distance between depression points in the shaft of the ilia at right angles to the vertical measurements. […]
# [7] = first-calf heifers treated day 272
# [8] = first-calf heifers treated day 272, relaxin 3,000 Units, dexamethasone 20 mg or cloprostenol 500 μg
# [9] = overall: relaxin with Dex or Clo vs Dex or Clo plus PBS
# [10] = relaxin twice (2 × 3,000 U, 12 h apart)
molecule,measurement,setting,value
"O=C(O)CCC/C=C\CC1C(O)CC(O)C1/C=C/C(O)COc1cccc(Cl)c1 (stereo not shown) [PBS & Clo, cloprostenol]",Animals with placenta retained ≥24 h,[1]; [7],80%
same,Ease of calving,[1]; [7],40%
same,Interval between treatment and calving,[1]; [8],54 ± 3.4 h
same,Interval between treatment and calving,"[1]; first-calf heifers treated day 272, relaxin 3,000 Units, dexamethasone 20 mg or cloprostenol 500 μg, listed as cloprostenol plus PBS",54 h
same,Animals with placenta retained ≥24 h,[2]; 1st & 2nd calf heifers,93%
same,Ease of calving,[2]; 1st & 2nd calf heifers,63%
same,Interval between treatment and calving,[2]; 1st & 2nd calf heifers,45 ± 6 h
same,Animals with placenta retained ≥24 h,[2]; 1st calf heifers,80%
same,Ease of calving,[2]; 1st calf heifers,40%
same,Interval between treatment and calving,[2]; 1st calf heifers,46 ± 5 h
same,Animals with placenta retained ≥24 h,[2]; 2nd calf heifers,100%
same,Ease of calving,[2]; 2nd calf heifers,75%
same,Interval between treatment and calving,[2]; 2nd calf heifers,44 ± 7 h
"C[C@@H]1C[C@H]2[C@@H]3CCC4=CC(=O)C=C[C@]4(C)[C@@]3(F)[C@@H](O)C[C@]2(C)[C@@]1(O)C(=O)CO [PBS + Dex, dexamethasone]",Animals with placenta retained ≥24 h,[1]; [7],70%
same,Ease of calving,[1]; [7],30%
same,Interval between treatment and calving,[1]; [8],53 ± 2.6 h
same,Interval between treatment and calving,"[1]; first-calf heifers treated day 272, relaxin 3,000 Units, dexamethasone 20 mg or cloprostenol 500 μg, listed as dexamethasone plus PBS",53 h
relaxin,Animals with placenta retained ≥24 h,[1]; [9],23%
same,Ease of calving,[1]; [9],62%
same,Interval between treatment and calving,"[1]; overall: relaxin with Dex or Clo vs Dex or Clo plus PBS, 60 first-calf heifers",34 ± 2.8 h
same,Interval between treatment and calving,"[1]; overall: relaxin with Dex or Clo vs Dex or Clo plus PBS, 60 first-calf heifers, listed as relaxin",34 h
same,relaxin potency,[3],3000 Units/mg
same,incidence of retained placenta beyond 24 h postpartum,[4]; all relaxin-treated heifers (once or twice),0 of 31
same,"Heifers calving within 48 h after treatment, %","[4]; relaxin once (3,000 U)",45%
same,Mean interval of days between first treatment and calving,"[4]; relaxin once (3,000 U)",2.5 days
same,Day of calving,"[4]; relaxin once (3,000 U) into cervical os",280.5 ± 0.8
same,"Heifers calving within 48 h after treatment, No.","[4]; relaxin once (3,000 U), 14 heifers",6
same,"calved earlier than PBS-gel vehicle-treated heifers, average",[4]; relaxin twice,3.3 days
same,"Heifers calving within 48 h after treatment, %",[4]; [10],88%
same,Mean interval of days between first treatment and calving,[4]; [10],2.0 days
same,Day of calving,"[4]; relaxin twice (2 × 3,000 U, 12 h apart) into cervical os",278.6 ± 1.2
same,"Heifers calving within 48 h after treatment, No.","[4]; relaxin twice (2 × 3,000 U, 12 h apart), 17 heifers",15
same,heifers calving within 24 h after treatment,"[4]; relaxin-treated group vs PBS-gel vehicle, P<0.001",more heifers calving
same,duration of gestation,"[4]; relaxin-treated heifers vs PBS-gel vehicle controls, P<0.05",reduced
same,duration of pregnancy,"[5]; 3000 U/mg, four days before expected parturition",did not significantly reduce
same,cervical dilation,"[5]; cows, a few days before expected parturition",induce cervical dilation
same,duration of pregnancy,[5]; heifers given relaxin intracervically on three consecutive days,Some shortening of pregnancy
same,pelvic area,"[6]; 12 h after treatment, all relaxin-treated heifers, P<0.05",marked increases
same,cervical dilatation increase,[6]; relaxin once,526%
same,cervical dilatation increase,[6]; relaxin twice,634%
